From US6702996B1, “Method for investigating the suitability of a material as a medicament” (Aventis Pharma Deutschland GmbH, priority 1999, dated 2004)

System: C. elegans
Experiment: Retraction reflex of nematodes to a local thermal stimulus (laser, head region)
Type: in vivo, Caenorhabditis elegans
Conditions: for effect on the reflex behaviour of the nematode: nematodes exposed to the substance, local thermal stimulus
Procedure: The inventors' experiments have thus shown that the use of C. elegans as an animal model for studying materials in terms of their suitability as medicaments in humans or other mammals allows reliable predictions to be made, especially where the sensation or perception of pain is involved, both in terms of algesic or hyperalgesic effects and in terms of analgesic effects. […] A normal reflex to a thermal stimulus of e.g. 32-40° C. in the head region of the nematode can be described as follows:
I) Rapid reflexive retraction by at least one whole body length and subsequent orientation of the head in another direction.
II) Rapid reflexive retraction, but without backward motion.
The well-fed test animals (C. elegans) (about 100; length about 1.3 mm; diameter 80 μm) were irradiated in the experiments with an infrared laser (685±0.5 nm). The laser beam was always focused on a spot of diameter 30 μm in the head region of the animal, a local warming to 33.5±1° C. being observed on an agar surface. To examine the animals' behaviour in greater detail, they were exposed to a nociceptive stimulus, after which they were incubated in capsaicin at concentrations varying from 1 to 100 μM. A strong reaction was still being observed 1 h after incubation.

COc1cc(CNC(=O)CCCC/C=C/C(C)C)ccc1O [capsaicin]
reaction (intensified reflex as in I)) in mutants (C. elegans mutants whose normal behaviour is that only 70% of the animals react as in I)): observed even more clearly
animals exhibiting a reflex as in I) (rapid reflexive retraction by at least one whole body length) (incubated in capsaicin 1 to 100 μM, 1 h after incubation, laser warming to 33.5±1° C. in head region, control group 80%): over 90%
effect on the reflex behaviour of the nematode: can be influenced

Oc1cc2c(cc1O)CN(C(=S)NCCc1ccc(Cl)cc1)CCC2 [capzazepine]
effect on the reflex behaviour of the nematode: can be influenced
